Assay results as given in PubChem BioAssay AID330 (DTP/NCI, 2004).
Toxic doses and inconclusive results are not listed. How the source made its calls: active means survival T/C of 150% or more; inactive means T/C below 125% in these data.

System: P388 leukemia ip, CD2F1 mice, survival T/C
Experiment: NCI In Vivo Anticancer Drug Screen. Data for tumor model P388 Leukemia (intraperitoneal) in CD2F1 (CDF1) mice
Details: endpoint: median survival time, higher = longer survival
Method in brief: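 Mice carrying the transplanted tumor received test compound or vehicle. Survival was recorded in each group, and the value is the treated-group measurement divided by that of the vehicle-treated control group.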

[1] = dose: 25.0 mg/kg/injection, schedule: Q01DX009 (ip), vehicle: saline with Tween-80
[2] = dose: 50.0 mg/kg/injection, schedule: Q01DX009 (ip), vehicle: saline with Tween-80
[3] = dose: 100.0 mg/kg/injection, schedule: Q01DX009 (ip), vehicle: saline with Tween-80
[4] = dose: 200.0 mg/kg/injection, schedule: Q01DX009 (ip), vehicle: saline with Tween-80
[5] = dose: 50.0 mg/kg/injection, schedule: Q01DX005 (ip), vehicle: saline with Tween-80
[6] = dose: 100.0 mg/kg/injection, schedule: Q01DX005 (ip), vehicle: saline with Tween-80
[7] = dose: 200.0 mg/kg/injection, schedule: Q01DX005 (ip), vehicle: saline with Tween-80
[8] = dose: 50.0 mg/kg/injection, schedule: Q01DX009 (ip), vehicle: Klucel (hydroxypropylcellulose) (HPC)
[9] = dose: 100.0 mg/kg/injection, schedule: Q01DX009 (ip), vehicle: Klucel (hydroxypropylcellulose) (HPC)
[10] = dose: 200.0 mg/kg/injection, schedule: Q01DX009 (ip), vehicle: Klucel (hydroxypropylcellulose) (HPC)
[11] = dose: 50.0 mg/kg/injection, schedule: Q01DX005 (ip), vehicle: Klucel (hydroxypropylcellulose) (HPC)
[12] = dose: 100.0 mg/kg/injection, schedule: Q01DX005 (ip), vehicle: Klucel (hydroxypropylcellulose) (HPC)
[13] = dose: 200.0 mg/kg/injection, schedule: Q01DX005 (ip), vehicle: Klucel (hydroxypropylcellulose) (HPC)
[14] = dose: 100.0 mg/kg/injection, schedule: Q01DX001 (ip), vehicle: saline with Tween-80
[15] = dose: 200.0 mg/kg/injection, schedule: Q01DX001 (ip), vehicle: saline with Tween-80
[16] = dose: 400.0 mg/kg/injection, schedule: Q01DX001 (ip), vehicle: saline with Tween-80

Measured: T/C

Nc1nc2ccccc2[nH]1
inactive: dose: 20.0 mg/kg/injection, schedule: Q04DX003 (ip), vehicle: other 101 % of control | dose: 20.0 mg/kg/injection, schedule: Q04DX003 (oral), vehicle: other 102 % of control | dose: 40.0 mg/kg/injection, schedule: Q04DX003 (ip), vehicle: other 100 % of control | dose: 40.0 mg/kg/injection, schedule: Q04DX003 (oral), vehicle: other 100 % of control | dose: 80.0 mg/kg/injection, schedule: Q04DX003 (ip), vehicle: other 101 % of control | dose: 80.0 mg/kg/injection, schedule: Q04DX003 (oral), vehicle: other 102 % of control | dose: 160.0 mg/kg/injection, schedule: Q04DX003 (ip), vehicle: other 99 % of control | dose: 160.0 mg/kg/injection, schedule: Q04DX003 (oral), vehicle: other 102 % of control

NC(Cc1ccc(OC(c2ccccc2)c2ccccc2)cc1)C(=O)O (stereo unspecified)
inactive: dose: 12.5 mg/kg/injection, schedule: Q01DX009 (ip), vehicle: saline with Tween-80 116 % of control | [1] 98 % of control | [2] 88 % of control | [3] 95 % of control | [4] 97 % of control

CN(CC(=O)C(O)C(O)C(O)CO)c1ccccc1 (stereo unspecified)
inactive: dose: 50.0 mg/kg/injection, schedule: Q01DX005 (ip), vehicle: saline 99 % of control | dose: 100.0 mg/kg/injection, schedule: Q01DX005 (ip), vehicle: saline 100 % of control | dose: 200.0 mg/kg/injection, schedule: Q01DX005 (ip), vehicle: saline 100 % of control

CCC1C(=O)C=C(c2ccccc2)CC1c1ccccc1 (stereo unspecified)
inactive: [5] 111 % of control | [6] 102 % of control | [7] 93 % of control

Oc1ccc2c(c1)Cc1cc3ccccc3nc1-2
inactive: dose: 25.0 mg/kg/injection, schedule: Q01DX009 (ip), vehicle: Klucel (hydroxypropylcellulose) (HPC) 101 % of control | [8] 98 % of control | [9] 94 % of control | [10] 103 % of control

CCCC(NC(=O)C(C)NC(=O)OCc1ccccc1)C(=O)O (stereo unspecified)
inactive: [11] 98 % of control | [12] 96 % of control | [13] 96 % of control

COc1ccc2c(c1)CCC1C=NOC21 (stereo unspecified)
inactive: [11] 97 % of control | [12] 103 % of control | [13] 97 % of control

O=C(O)C1C(C(=O)O)C2(Cl)C(Cl)=C(Cl)C1(Cl)C2(Cl)Cl.[Fe] (stereo unspecified)
inactive: dose: 6.25 mg/kg/injection, schedule: Q01DX001 (ip), vehicle: saline with Tween-80 100 % of control | dose: 12.5 mg/kg/injection, schedule: Q01DX001 (ip), vehicle: saline with Tween-80 104 % of control | dose: 25.0 mg/kg/injection, schedule: Q01DX001 (ip), vehicle: saline with Tween-80 109 % of control

O=C(N/N=C/c1cc(Br)cc(Br)c1O)c1ccccc1
inactive: [14] 96 % of control | [15] 96 % of control | [16] 92 % of control

Cc1ccc(N=S(C)(C)=O)cc1
inactive: [14] 103 % of control | [15] 104 % of control | [16] 102 % of control

O=c1cc(-c2ccccc2)[nH]c(=S)[nH]1
inactive: dose: 50.0 mg/kg/injection, schedule: Q01DX001 (ip), vehicle: Klucel (hydroxypropylcellulose) (HPC) 103 % of control | dose: 100.0 mg/kg/injection, schedule: Q01DX001 (ip), vehicle: Klucel (hydroxypropylcellulose) (HPC) 100 % of control | dose: 200.0 mg/kg/injection, schedule: Q01DX001 (ip), vehicle: Klucel (hydroxypropylcellulose) (HPC) 99 % of control | dose: 400.0 mg/kg/injection, schedule: Q01DX001 (ip), vehicle: Klucel (hydroxypropylcellulose) (HPC) 106 % of control

CC(O)C(NC(=O)C(Cc1ccc(O)cc1)NC(=O)C(CCCCN)N(C(=O)OCc1ccccc1)C(=O)OCc1ccccc1)C(=O)OCc1ccccc1 (stereo unspecified)
inactive: [5] 94 % of control | [6] 92 % of control | [7] 93 % of control

CCCCn1c2nc(=O)[nH]c(=O)c-2cc2ccccc21
inactive: [1] 98 % of control | [2] 94 % of control | [3] 91 % of control

O=C(O)C(Cc1ccc(F)cc1)NC(=O)C(F)(F)F (stereo unspecified)
inactive: [2] 95 % of control | [3] 95 % of control | [4] 100 % of control

Nc1cccc2c1C(=O)c1cccc(N)c1C2=O
inactive: [5] 100 % of control | [8] 97 % of control | [6] 91 % of control | [9] 100 % of control | [7] 100 % of control | [10] 108 % of control | dose: 400.0 mg/kg/injection, schedule: Q01DX009 (ip), vehicle: Klucel (hydroxypropylcellulose) (HPC) 104 % of control

O=C1NC2C=CN(Cc3ccccc3)C=C2C(=O)N2CCCC12 (stereo unspecified)
inactive: dose: 60.0 mg/kg/injection, schedule: Q01DX005 (ip), vehicle: saline with Tween-80 101 % of control | dose: 120.0 mg/kg/injection, schedule: Q01DX005 (ip), vehicle: saline with Tween-80 101 % of control | dose: 240.0 mg/kg/injection, schedule: Q01DX005 (ip), vehicle: saline with Tween-80 97 % of control

COC(=O)c1cc(=O)n2c(nc3ccccc32)s1
inactive: dose: 50.0 mg/kg/injection, schedule: Q01DX005 (ip), vehicle: acetone 108 % of control | dose: 100.0 mg/kg/injection, schedule: Q01DX005 (ip), vehicle: acetone 104 % of control | dose: 200.0 mg/kg/injection, schedule: Q01DX005 (ip), vehicle: acetone 101 % of control

Clc1ccc2[nH]c3c(c2c1)CCCC3
inactive: dose: 200.0 mg/kg/injection, schedule: Q04DX003 (ip), vehicle: saline with Tween-80 94 % of control

Cc1c(Cl)c(C)c(Cl)c(CCl)c1Cl
inactive: dose: 18.75 mg/kg/injection, schedule: Q04DX003 (ip), vehicle: saline sonified 95 % of control | dose: 37.5 mg/kg/injection, schedule: Q04DX003 (ip), vehicle: saline sonified 109 % of control | dose: 75.0 mg/kg/injection, schedule: Q04DX003 (ip), vehicle: saline sonified 109 % of control

O=S=C(c1ccccc1)N(Cc1ccccc1)Cc1ccccc1
inactive: dose: 25.0 mg/kg/injection, schedule: Q01DX009 (ip), vehicle: saline 96 % of control | dose: 50.0 mg/kg/injection, schedule: Q01DX009 (ip), vehicle: saline 97 % of control | dose: 100.0 mg/kg/injection, schedule: Q01DX009 (ip), vehicle: saline 97 % of control

C/C(=N\O)c1cc(Br)cc([N+](=O)[O-])c1O
inactive: [11] 100 % of control | [12] 94 % of control

Cc1cc(C)[nH]n1
inactive: [3] 110 % of control | [4] 105 % of control | dose: 400.0 mg/kg/injection, schedule: Q01DX009 (ip), vehicle: saline with Tween-80 120 % of control
